Results on 17 molecules are retold here after US7786141B2 (Vertex Pharmaceuticals Incorporated, priority 2004, dated 2010).

Bounds are passed on as bounds.

One test has as its target T1, M1 muscarinic receptor (Homo sapiens, UniProt P11229).
T1 construct: expressed in transfected cells; host or cells: CHO (M1-CHO)
T1 sequence (P11229 1-460): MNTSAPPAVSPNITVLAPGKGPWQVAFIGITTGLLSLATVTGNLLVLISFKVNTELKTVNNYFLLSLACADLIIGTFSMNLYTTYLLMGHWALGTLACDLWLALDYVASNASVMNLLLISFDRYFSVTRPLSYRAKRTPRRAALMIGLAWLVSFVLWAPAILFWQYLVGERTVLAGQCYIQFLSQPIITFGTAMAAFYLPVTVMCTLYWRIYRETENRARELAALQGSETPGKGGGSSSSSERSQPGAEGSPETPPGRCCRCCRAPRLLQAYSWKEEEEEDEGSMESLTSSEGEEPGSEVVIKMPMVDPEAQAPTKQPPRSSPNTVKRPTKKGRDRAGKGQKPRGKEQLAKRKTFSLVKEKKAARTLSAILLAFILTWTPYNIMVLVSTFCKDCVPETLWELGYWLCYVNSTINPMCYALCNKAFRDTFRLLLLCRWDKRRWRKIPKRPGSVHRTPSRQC
In words: Functional mobilization of intracellular calcium (FLIPR) in M1-CHO cells. The class given is cell-based. The conditions noted are these: M1 receptor, calcium mobilization; for Emax: read-out: M1 Efficacy. The protocol:
(§1) Functional Mobilization of Intracellular Calcium to Determine Muscarinic Receptor Activity:
(§2) CHO cells expressing muscarinic receptors (M1 to M5) are grown as monolayers in tissue culture flasks at 37° C. in a humidified atmosphere containing 5% CO2 and passaged every 3-5 days. The growth media is Dulbecco's modified eagles medium (DMEM, Gibco Cat# 12430-054), containing 25 mM Hepes and supplemented with Fetal Bovine Serum (Hyclone, cat# SH30071.03), 0.1 mM of MEM non-essential amino acids (GIBCO, Cat# 11140-050), 1 mM MEM Sodium Pyruvate (GIBCO Cat# 11360-070) and 100 units/ml of Penicillin G and 100 μg/ml of Streptomycin (GIBCO Cat# 15140-122). The recombinant muscarinic receptor cell lines are grown under antibiotic pressure with media containing 25 μg/ml zeocin and 500 μg/ml G418 (M1-CHO), 4 μg/ml puromycin, 50 μg/ml zeocin and 2.5 μg/ml blasticidin (M2 and M4-CHO) or 50 μg/ml zeocin and 4 μg/ml puromycin (M3 and M5-CHO).
(§3) Cells are harvested at 80-90% confluence using Versene (GIBCO Cat# 15040-066), collected by centrifugation and seeded 18-24 hrs prior to running the calcium assay at a density of 5,000 cells/well in back-walled, clear-bottomed 384-well plates (BD Biocoat, poly-D-lysine, Cat#356663). The day of the experiment, the cells are washed with a plate washer (Bioteck Instruments, ELX 405) using bath 1 buffer (140-mM NaCl, 4.5-mM KCl, 2-mM CaCl2, 1-mM MgCl2, 10-mM Hepes-Na, 10-mM Glucose, pH 7.4, with NaOH) containing 1 mM Probenecid. Next, the calcium dye Fluo-3 (25 μl/well of Fluo-3 AM at 4 μM, Molecular Probes F-1241, in Bath 1 buffer containing 1 mM Probenecid) is added to the 25 μl of Bath 1 remaining in each well after the plate wash and the dye is loaded at 37° C. in the tissue culture incubator for 60-90 min. The fluorescent dye is removed using the plate washer with Bath 1 containing 1 mM Probenecid, leaving 25 μl/well of this solution after the wash. Alternatively, cells can be loaded with the calcium indicator from Molecular Devices (Calcium 3 Assay Reagents, Cat # R7181) adding 5 μl of a 5× solution dye in Bath 1 containing 1 mM Probenecid (10 ml per dye flask cat# R7182 to generate a solution 20×) to 20 μl of the same buffer. After loading for 60 min, the experiment can be run without having to remove the dye.
(§4) Compounds are prepared at a 2× fold concentration in a 96-well plate (round bottom, Costar Corning cat# 3656), by reconstituting the pre-spotted compounds in bath 1 containing 1 mM probenecid. The final concentration DMSO is 0.5%, and the amount of DMSO is normalized across the assay plate. To determine an agonist action of the compounds on muscarinic receptors, the reconstituted compounds are added (25 μl compound/well) to the cell assay plate (containing 25 μl/well) using the multi-channel robotic system of the FLIPR 3 Instrument (Molecular Devices, Sunnyvale, Calif.). To determine a functional inhibitory action of the compounds on muscarinic receptors, the reconstituted compounds are added (25 μl compound/well) to the assay plate and pre-incubated for 15 min prior to adding 25 μl of Carbachol at 3× the EC80 for each muscarinic subtype. Alternatively, the compounds can be co-applied simultaneously with the agonist. In both assay modes, the fluorescence is recorded for 60 sec (excitation wavelength is […] and emission wavelength 540 nm) using the FLIPR 3 instrument.
(§5) The potency, efficacy and selectivity of the muscarinic compounds were evaluated by screening the compound activity across the whole family (M1 to M5 cells). Compounds were also screened for activity on other proteins such as other GPCRs and ion channels to determine selectivity on M4 receptors.
For orientation: Calcium flux is commonly read through the fluorescence of an indicator in the cells.

The target of a further test is T2, M4 muscarinic receptor (Homo sapiens, UniProt P08173).
T2 construct: expressed in transfected cells; host or cells: CHO (M4-CHO)
T2 sequence (P08173 1-479): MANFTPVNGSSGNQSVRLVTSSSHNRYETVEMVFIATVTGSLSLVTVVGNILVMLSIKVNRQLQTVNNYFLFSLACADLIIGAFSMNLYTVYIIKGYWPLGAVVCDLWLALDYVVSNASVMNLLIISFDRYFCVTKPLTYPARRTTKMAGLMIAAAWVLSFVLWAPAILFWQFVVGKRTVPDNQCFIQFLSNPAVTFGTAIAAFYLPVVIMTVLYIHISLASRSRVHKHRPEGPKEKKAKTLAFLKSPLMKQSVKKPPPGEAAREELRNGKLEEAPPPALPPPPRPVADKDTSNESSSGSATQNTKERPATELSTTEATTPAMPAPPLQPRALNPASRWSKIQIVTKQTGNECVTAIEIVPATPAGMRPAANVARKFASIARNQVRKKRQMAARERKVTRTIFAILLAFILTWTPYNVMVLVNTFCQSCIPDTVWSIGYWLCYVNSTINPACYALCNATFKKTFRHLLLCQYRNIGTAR
The test can be described thus: Functional mobilization of intracellular calcium (FLIPR) in M4-CHO cells. The class given is cell-based. The conditions noted are these: M4 receptor, calcium mobilization; for Emax: read-out: M4 Efficacy. As to the method:
as §1, §2, §3, §4, §5

On to `c1ccc2c(c1)CCC21CCN(CC2CCOCC2)CC1` [compound 18], for which, on M1 muscarinic receptor, the “M1 Activity” value is recorded as “xxx (activity was measured to be less than 0.1 μM)” and the Emax is under 65%. Besides, on M4 muscarinic receptor, the “M4 Activity” value is “xx (activity was measured to be between 0.1 μM and 1.0 μM)”; the Emax is over 85%.
As to `CCOC(=O)N1CCC(N2CCC3(CC2)CNc2ccc(Cl)cc23)CC1` [compound 19], at M1 muscarinic receptor, the “M1 Activity” value is “xxx (activity was measured to be less than 0.1 μM)” and the Emax lay within 65 to 85%. In addition, at M4 muscarinic receptor, the “M4 Activity” value was “xx (activity was measured to be between 0.1 μM and 1.0 μM)”; the Emax lay in the range of 65 to 85%.
As to `CC1(C)C(=O)c2ccccc2C12CCN(C[C@H]1C[C@@H]3C=C[C@@H]1C3)CC2` [compound 20], on M1 muscarinic receptor, the “M1 Activity” value is on record as “x (activity was measured to be greater than 1.0 μM)” and the Emax is under 65%. Further, on M4 muscarinic receptor, the “M4 Activity” value was “xx (activity was measured to be between 0.1 μM and 1.0 μM)”; the Emax was under 65%.
For `CCOC(=O)N1CCC(CN2CCC3(CC2)CN(C(C)=O)c2ccc(OC(F)(F)F)cc23)CC1` [compound 21], on M1 muscarinic receptor, the “M1 Activity” value was “xx (activity was measured to be between 0.1 μM and 1.0 μM)”; the Emax is under 65%. At M4 muscarinic receptor, the “M4 Activity” value is “x (activity was measured to be greater than 1.0 μM)” and the Emax was under 65%.
Consider `CCOC(=O)N1CCC(N2CCC3(CC2)CN(C(=O)N2CCCC2)c2ccc(F)cc23)CC1` [compound 22], for which, at M1 muscarinic receptor, the “M1 Activity” value is recorded as “xxx (activity was measured to be less than 0.1 μM)” and the Emax was 65 to 85%. Also, on M4 muscarinic receptor, the “M4 Activity” value was “x (activity was measured to be greater than 1.0 μM)” and the Emax was under 65%.
Regarding `Cc1ccc2c(c1)C1(CCN([C@@H]3C[C@@H]4CC[C@@H]3C4)CC1)CN2` [compound 23], at M1 muscarinic receptor, the “M1 Activity” value was “xx (activity was measured to be between 0.1 μM and 1.0 μM)”; the Emax was under 65%. For the same molecule, on M4 muscarinic receptor, the “M4 Activity” value is on record as “x (activity was measured to be greater than 1.0 μM)” and the Emax is under 65%.
For the molecule `Cc1cc(C(=O)N2CC3(CCN(C4CC5CCC(C4)N5C(=O)OC(C)C)CC3)c3cc(F)ccc32)nn1C` (centres unmarked) [compound 24], at M1 muscarinic receptor, the “M1 Activity” value is “xx (activity was measured to be between 0.1 μM and 1.0 μM)”; the Emax was under 65%. In addition, on M4 muscarinic receptor, the “M4 Activity” value is given as “x (activity was measured to be greater than 1.0 μM)” and the Emax is under 65%.
`COCCOC(=O)N1CCC(CN2CCC3(CC2)CN(C(C)=O)c2ccc(F)cc23)CC1` [compound 26]: on M1 muscarinic receptor, the “M1 Activity” value was “xxx (activity was measured to be less than 0.1 μM)” and the Emax was 65 to 85%. For the same molecule, on M4 muscarinic receptor, the “M4 Activity” value is “xx (activity was measured to be between 0.1 μM and 1.0 μM)”; the Emax is under 65%.
Consider `CCC1CCC(N2CCC3(CC2)CN(C(C)=O)c2ccc(F)cc23)CC1` (centres unmarked) [compound 27], for which, on M1 muscarinic receptor, the “M1 Activity” value is given as “xxx (activity was measured to be less than 0.1 μM)” and the Emax lay within 65 to 85%. For the same molecule, at M4 muscarinic receptor, the “M4 Activity” value is on record as “xxx (activity was measured to be less than 0.1 μM)” and the Emax is 65 to 85%.
For the molecule `CCOC(=O)N1C2CCC1CC(N1CCC3(CC1)CN(C(=O)O[C@@H]1CCOC1)c1ccc(F)cc13)C2` (some centres unmarked) [compound 28], on M1 muscarinic receptor, the “M1 Activity” value was “xxx (activity was measured to be less than 0.1 μM)” and the Emax is over 85%. Besides, at M4 muscarinic receptor, the “M4 Activity” value was “xx (activity was measured to be between 0.1 μM and 1.0 μM)”; the Emax fell in the range of 65 to 85%.
For `CC(=O)N[C@H]1CC2(CCN(CC3CC4CCC3CC4)CC2)c2ccccc21` (some centres unmarked) [compound 29], at M1 muscarinic receptor, the “M1 Activity” value was “xxx (activity was measured to be less than 0.1 μM)” and the Emax is over 85%. At M4 muscarinic receptor, the “M4 Activity” value is recorded as “xxx (activity was measured to be less than 0.1 μM)” and the Emax was over 85%.
For the molecule `CCOC(=O)N1CCC(N2CCC3(CC2)CN(C(=O)OCC(C)C)c2ccc(F)cc23)CC1` [compound 30], on M1 muscarinic receptor, the “M1 Activity” value was “xxx (activity was measured to be less than 0.1 μM)” and the Emax was over 85%. Moreover, on M4 muscarinic receptor, the “M4 Activity” value was “xxx (activity was measured to be less than 0.1 μM)” and the Emax is over 85%.
As to `CCOC(=O)N1CCC(N2CCC3(CC2)C(=O)N(C)c2ccccc23)CC1` [compound 31], on M1 muscarinic receptor, the “M1 Activity” value was “xxx (activity was measured to be less than 0.1 μM)” and the Emax is over 85%. Moreover, at M4 muscarinic receptor, the “M4 Activity” value is listed as “xxx (activity was measured to be less than 0.1 μM)” and the Emax lay in the range of 65 to 85%.
`CN(C)C(=O)N1CC2(CCN(C3CC4CCC(C3)N4C(=O)OCCF)CC2)c2cc(F)ccc21` (centres unmarked) [compound 32]: at M1 muscarinic receptor, the “M1 Activity” value is recorded as “xxx (activity was measured to be less than 0.1 μM)” and the Emax is over 85%. Besides, at M4 muscarinic receptor, the “M4 Activity” value is “xxx (activity was measured to be less than 0.1 μM)” and the Emax fell in the range of 65 to 85%.
In the case of `COCCOC(=O)N1C2CCC1CC(N1CCC3(CC1)CN(C(=O)OC)c1ccc(F)cc13)C2` (centres unmarked) [compound 33], on M1 muscarinic receptor, the “M1 Activity” value is “xxx (activity was measured to be less than 0.1 μM)” and the Emax was over 85%. Moreover, at M4 muscarinic receptor, the “M4 Activity” value is on record as “xxx (activity was measured to be less than 0.1 μM)” and the Emax was over 85%.
As to `CCOC(=O)N1CCC(CN2CCC3(CC2)CC(=O)Nc2ccccc23)CC1` [compound 34], on M1 muscarinic receptor, the “M1 Activity” value is “xxx (activity was measured to be less than 0.1 μM)” and the Emax lay in the range of 65 to 85%. For the same molecule, at M4 muscarinic receptor, the “M4 Activity” value is “xx (activity was measured to be between 0.1 μM and 1.0 μM)”; the Emax was over 85%.
For `CC(=O)N1CC2(CCN(C3CC4CCC(C4)C3)CC2)c2cc(F)ccc21` (centres unmarked) [compound 35], at M1 muscarinic receptor, the “M1 Activity” value is “xxx (activity was measured to be less than 0.1 μM)” and the Emax was over 85%. Moreover, at M4 muscarinic receptor, the “M4 Activity” value was “xx (activity was measured to be between 0.1 μM and 1.0 μM)”; the Emax is over 85%.
